Data published in the NIST ThermoML archive (doi:10.1021/je034102r).
± gives the expanded uncertainty stated by the source.

Experiment: molar heat capacity at constant pressure
Settings: 101.33 kPa, Liquid, heat bridge-scanning calorimeter

CCCCn1cc[n+](C)c1.F[P-](F)(F)(F)(F)F [1-butyl-3-methylimidazolium hexafluorophosphate]
Settings	molar heat capacity at constant pressure [J/K/mol]
380.71 K	456.97 ± 9.1
380.84 K	457.53 ± 9.1
380.98 K	457.25 ± 9.1
381.25 K	457.53 ± 9.1
381.38 K	456.97 ± 9.1
381.51 K	456.68 ± 9.1
381.63 K	456.68 ± 9.1
381.76 K	456.68 ± 9.1
381.89 K	456.97 ± 9.1
382.01 K	457.53 ± 9.1
382.14 K	457.82 ± 9.1
382.27 K	457.53 ± 9.1
382.56 K	457.53 ± 9.1
382.68 K	458.39 ± 9.1
382.81 K	457.82 ± 9.1
382.94 K	458.1 ± 9.1
383.06 K	458.39 ± 9.1
383.19 K	458.67 ± 9.1
383.32 K	458.67 ± 9.1
383.45 K	458.39 ± 9.1
383.57 K	457.82 ± 9.1
383.7 K	457.82 ± 9.1
383.83 K	457.53 ± 9.1
384.1 K	458.1 ± 9.1
384.23 K	457.82 ± 9.1
384.36 K	458.1 ± 9.1
384.48 K	458.67 ± 9.1
384.61 K	459.24 ± 9.1
384.74 K	458.95 ± 9.1
384.86 K	458.39 ± 9.1
384.99 K	457.82 ± 9.1
385.12 K	458.1 ± 9.1
385.41 K	459.52 ± 9.1
385.54 K	460.09 ± 9.1
385.66 K	459.81 ± 9.1
385.79 K	459.52 ± 9.1
385.92 K	459.24 ± 9.1
386.05 K	459.52 ± 9.1
386.18 K	460.09 ± 9.1
386.3 K	460.09 ± 9.1
386.43 K	459.81 ± 9.1
386.56 K	460.09 ± 9.1
386.69 K	460.38 ± 9.1
386.97 K	460.38 ± 9.1
387.1 K	460.09 ± 9.1
387.23 K	460.09 ± 9.1
387.36 K	459.81 ± 9.1
387.49 K	460.09 ± 9.1
387.61 K	460.38 ± 9.1
387.74 K	460.38 ± 9.1
387.87 K	460.09 ± 9.1
388 K	460.09 ± 9.1
388.28 K	461.23 ± 9.1
388.41 K	460.94 ± 9.1
388.54 K	461.23 ± 9.1
388.67 K	461.51 ± 9.1
388.79 K	461.51 ± 9.1
388.92 K	461.51 ± 9.1
389.05 K	461.51 ± 9.1
389.18 K	461.8 ± 9.4
389.3 K	461.8 ± 9.4
389.43 K	461.51 ± 9.1
389.56 K	461.8 ± 9.4
389.84 K	461.8 ± 9.4
389.96 K	462.08 ± 9.4
390.09 K	462.08 ± 9.4
390.22 K	462.36 ± 9.4
390.35 K	462.93 ± 9.4
390.47 K	462.93 ± 9.4
390.6 K	463.79 ± 9.4
390.73 K	464.07 ± 9.4
390.86 K	463.5 ± 9.4
391.15 K	463.5 ± 9.4
391.27 K	464.35 ± 9.4
391.4 K	464.64 ± 9.4
391.53 K	464.35 ± 9.4
391.66 K	464.64 ± 9.4
391.79 K	464.07 ± 9.4
391.92 K	464.07 ± 9.4
392.05 K	463.79 ± 9.4
392.17 K	463.79 ± 9.4
392.3 K	464.35 ± 9.4
392.43 K	464.92 ± 9.4
392.71 K	464.07 ± 9.4
392.84 K	464.07 ± 9.4
392.97 K	464.07 ± 9.4
393.11 K	464.07 ± 9.4
393.24 K	464.07 ± 9.4
393.36 K	464.35 ± 9.4
393.49 K	464.35 ± 9.4
393.62 K	464.64 ± 9.4
393.75 K	465.21 ± 9.4
394.04 K	465.21 ± 9.4
394.17 K	465.21 ± 9.4
394.3 K	465.49 ± 9.4
394.42 K	465.49 ± 9.4
394.55 K	465.77 ± 9.4
394.68 K	466.34 ± 9.4
394.81 K	467.48 ± 9.4
394.94 K	467.48 ± 9.4
395.07 K	467.2 ± 9.4
395.2 K	466.63 ± 9.4
395.32 K	466.63 ± 9.4
395.6 K	466.91 ± 9.4
395.73 K	466.91 ± 9.4
395.86 K	467.2 ± 9.4
395.99 K	468.05 ± 9.4
396.12 K	468.33 ± 9.4
396.24 K	468.33 ± 9.4
396.37 K	468.33 ± 9.4
396.5 K	468.62 ± 9.4
396.63 K	469.47 ± 9.4
396.92 K	469.19 ± 9.4
397.05 K	468.62 ± 9.4
397.18 K	468.9 ± 9.4
397.31 K	468.9 ± 9.4
397.44 K	469.19 ± 9.4
397.56 K	469.19 ± 9.4
397.69 K	469.47 ± 9.4
397.82 K	469.19 ± 9.4
397.95 K	469.19 ± 9.4
398.08 K	469.47 ± 9.4
398.21 K	469.47 ± 9.4
398.49 K	469.19 ± 9.4
398.62 K	469.47 ± 9.4
398.75 K	470.04 ± 9.4
398.88 K	470.32 ± 9.4
399.01 K	470.61 ± 9.4
399.15 K	470.61 ± 9.4
399.28 K	470.89 ± 9.4
399.41 K	471.17 ± 9.4
399.53 K	472.03 ± 9.4
399.82 K	471.17 ± 9.4
399.95 K	470.89 ± 9.4
400.08 K	470.89 ± 9.4
400.21 K	470.61 ± 9.4
400.34 K	471.17 ± 9.4
400.47 K	471.74 ± 9.4
400.6 K	471.74 ± 9.4
400.73 K	472.6 ± 9.4
400.86 K	472.03 ± 9.4
400.99 K	471.74 ± 9.4
401.12 K	471.74 ± 9.4
401.41 K	472.6 ± 9.4
401.54 K	472.31 ± 9.4
401.67 K	471.74 ± 9.4
401.8 K	472.03 ± 9.4
401.93 K	472.03 ± 9.4
402.06 K	472.31 ± 9.4
402.19 K	472.03 ± 9.4
402.32 K	471.46 ± 9.4
402.45 K	471.46 ± 9.4
402.74 K	471.74 ± 9.4
402.87 K	471.46 ± 9.4
403 K	471.74 ± 9.4
403.13 K	472.03 ± 9.4
403.26 K	472.03 ± 9.4
403.39 K	472.03 ± 9.4
403.52 K	472.03 ± 9.4
403.65 K	472.03 ± 9.4
403.78 K	472.31 ± 9.4
403.91 K	472.31 ± 9.4
404.04 K	472.6 ± 9.4
404.32 K	472.31 ± 9.4
404.45 K	472.31 ± 9.4
404.58 K	472.31 ± 9.4
404.71 K	473.16 ± 9.4
404.84 K	473.73 ± 9.4
404.98 K	473.73 ± 9.4
405.11 K	473.16 ± 9.4
405.24 K	472.88 ± 9.4
405.38 K	472.03 ± 9.4
405.67 K	472.88 ± 9.4
405.8 K	473.73 ± 9.4
405.93 K	474.02 ± 9.4
406.06 K	474.02 ± 9.4
406.2 K	473.73 ± 9.4
406.33 K	473.45 ± 9.4
406.46 K	472.88 ± 9.4
406.59 K	472.88 ± 9.4
406.72 K	473.16 ± 9.4
406.85 K	473.45 ± 9.4
406.98 K	473.73 ± 9.4
407.27 K	474.02 ± 9.4
407.4 K	473.73 ± 9.4
407.53 K	473.45 ± 9.4
407.66 K	473.45 ± 9.4
407.79 K	473.16 ± 9.4
407.92 K	473.16 ± 9.4
408.05 K	472.88 ± 9.4
408.19 K	473.45 ± 9.4
